Laboratory results reported in patent US20250186386A1, “METHODS OF REDUCING THE NEED FOR PERIPHERAL ARTERIAL REVASCULARIZATION IN A STATIN-TREATED SUBJECT” (AMARIN PHARMACEUTICALS IRELAND LIMITED, priority 2018, published 2025).
Like-named read-outs stand apart in the source and are kept apart here.

Tests used:
[1] = test system: hypertriglyceridemic patients with cardiovascular disease or at high risk for cardiovascular disease, on statin therapy; type: in vivo, human
Text: The following study, also referred to as the REDUCE-IT clinical trial, was a large cardiovascular (CV) outcome trial designed to assess CV risk reduction benefit of AMR101 treatment (commercially known as VASCEPA®) versus placebo on the 5-point primary composite endpoint: CV death, non-fatal stroke, non-fatal myocardial infarction (MI), coronary revascularizations, or unstable angina requiring hospitalization.
A multi-center, prospective, randomized, double-blind, placebo-controlled, parallel-group study was performed to evaluate the effect of AMR101 (4 g per day) on cardiovascular health and mortality in hypertriglyceridemic patients with cardiovascular disease or at high risk for cardiovascular disease. The intended expanded indication of the study was treatment with AMR101 as an add-on to statin therapy to reduce the risk of cardiovascular events in patients with clinical cardiovascular disease or with multiple risk factors for cardiovascular disease.
The primary objective of this study was, in patients at LDL-C goal while on statin therapy, with established cardiovascular disease (CVD) or at high risk for CVD, and hypertriglyceridemia (e.g., fasting triglycerides (TG)≥200 mg/dL and <500 mg/dL), to evaluate the effect of AMR101 4 g daily on time from randomization to first occurrence of any component of the composite of the following major CV events: CV death; nonfatal MI; (including silent MI; electrocardiograms (ECGs) were performed annually for the detection of silent MIs); nonfatal stroke; coronary revascularization; and unstable angina determined to be caused by myocardial ischemia by invasive/non-invasive testing and requiring emergent hospitalization.
The key secondary objective of this study was to evaluate the effect of AMR101 4 g daily on the time from randomization to the first occurrence of the composite of following major CV events: CV death, nonfatal MI (including silent MI), and nonfatal stroke.
Other secondary objectives for this study were to evaluate the effect of therapy on time from randomization to the first occurrence of the following individual or composite endpoints: composite of CV death or nonfatal MI (including silent MI); fatal or nonfatal MI (including silent MI); non-elective coronary revascularization represented as the composite of emergent or urgent classifications; CV death; unstable angina determined to be caused by myocardial ischemia by invasive/non-invasive testing and requiring emergent hospitalization; fatal or nonfatal stroke; composite of total mortality, nonfatal MI (including silent MI), or nonfatal stroke; and total mortality.
Primary Efficacy Endpoint: The primary efficacy endpoint was time from randomization to the first occurrence of the composite of the following clinical events: CV death; nonfatal MI (including silent MI; ECGs were performed annually for the detection of silent MIs); nonfatal stroke; coronary revascularization; and unstable angina determined to be caused by myocardial ischemia by invasive/non-invasive testing and requiring emergent hospitalization. The first occurrence of any of these major adverse vascular events during the follow-up period of the study were included in the incidence.
Secondary Efficacy Endpoints: The key secondary efficacy endpoint was the time from randomization to the first occurrence of the composite of CV death, nonfatal MI (including silent MI), or nonfatal stroke. […]

[2] = REDUCE-IT: treatment-emergent adverse events of the safety population
Procedure: Specification of Variables and Procedures: Safety assessments included adverse events, clinical laboratory measurements (chemistry, hematology), 12-lead ECGs, vital signs (systolic and diastolic blood pressure, heart rate, respiratory rate, and body temperature), weight, waist circumference, and physical examinations as per Study Procedures in Table 1. […] All laboratory test results were evaluated by the investigator as to their clinical significance. Any observations at physical examinations or laboratory values considered by the investigator to be clinically significant were considered an adverse event.
An adverse event can therefore be any unfavorable and/or unintended sign (including an abnormal laboratory finding), symptom, or disease temporally associated with the use of an investigational medication product, whether or not related to the investigational medication product. All adverse events, including observed or volunteered problems, complaints, or symptoms, were recorded on the appropriate CRF. Each adverse event was evaluated for duration, intensity, and causal relationship with the study medication or other factors.
Serious Adverse Events: A serious adverse event (SAE) is defined as an adverse event that meets any of the following criteria: • Results in death; • Is life-threatening—The term “life-threatening” in the definition of “serious” refers to an event in which the patient was at risk of death at the time of the event. […] Important medical events that may not result in death, be life threatening, or require hospitalization were considered an SAE when, based upon appropriate medical judgment, they may have jeopardized the patient and may have required medical or surgical intervention to prevent one of the outcomes listed above.
(§1) Analysis of Safety: All analyses of safety were conducted on the safety population, which was defined as all randomized patients. The safety assessment was based on the frequency of adverse events, physical exams, vital signs and safety laboratory tests. AEs with new onset during the study between the initiation of study drug and 30 days after the last dose of study drug for each patient was considered treatment-emergent (TEAEs). This included any AE with onset prior to initiation of study drug and increased severity after the treatment initiation.
This included overall incidence rates (regardless of severity and relationship to study drug), and incidence rates for moderate or severe adverse events. A summary of SAEs and adverse events leading to early discontinuation (for 30 days) were presented through data listings. Patients who restarted study drug were included in the summary of AEs leading to discontinuation. Safety laboratory tests and vital signs were summarized by post-treatment change from baseline for each of the parameters using descriptive statistics by treatment group. Those patients with significant laboratory abnormalities were identified in data listings. Additional safety parameters were summarized in data listings.
In addition to the treatment-emergent adverse events analyses, analyses on all AEs (serious and non-serious) and all serious AEs were performed.

[3] = REDUCE-IT: serious bleeding treatment-emergent adverse events (adverse events of special interest); type: in vivo, human; conditions: Safety population
Procedure: Adverse Events of Special Interest: Bleeding-related adverse events, glucose control (fasting blood glucose and HbA1c), and indicators of hepatic disorders (e.g., ALT or AST increases >3×ULN, total bilirubin increases of ≥2×ULN) were summarized separately and compared between treatment groups.
as §1
This included overall incidence rates (regardless of severity and relationship to study drug), and incidence rates for moderate or severe adverse events. A summary of SAEs and adverse events leading to early discontinuation (for 30 days) were presented through data listings. Patients who restarted study drug were included in the summary of AEs leading to discontinuation. Safety laboratory tests and vital signs were summarized by post-treatment change from baseline for each of the parameters using descriptive statistics by treatment group. […]

[4] = test system: Lipid, lipoprotein, and inflammatory markers (TG, non-HDL-C, LDL-C, HDL-C, Apo B, hsCRP); assay: REDUCE-IT: fasting lipid profile and biomarker assays (lipid, lipoprotein, and inflammatory markers) over time; type: in vivo, human
Procedure: Fasting Lipid Profile: The fasting lipid panel included: TG, TC, LDL-C, HDL-C, non-HDL-C, and VLDL-C. At all visits, LDL-C was calculated using the Friedewald equation. At Visit 1 and Visit 1.1 direct LDL-C were used if at the same visit TG>400 mg/dL (4.52 mmol/L). These LDL-C values were used for the evaluation of the LDL-C inclusion criterion (LDL-C qualifying measurements for randomization) and for the assessment of changes in the statin therapy when LDL-C was not at goal. […] In addition, irrespective of the TG levels, at Visit 2 (0 Months of Follow-up, baseline) and at Visit 4 (12 Months of Follow-up), LDL-C were measured by preparative ultracentrifugation. These preparative ultracentrifugation LDL-C measurements were used in the statistical analysis including the calculation of the percent change from baseline (1 year versus baseline). Hopkins LDL-C was calculated for each visit.
Biomarkers Assays: The biomarker assays included: hsCRP, Apo B and hsTnT.
The fasting lipid panel was tested at Screening (Visit 1 or Visit 1.1), Randomization visit (Visit 2; Day 0), Visit 3 (Day 120; ˜4 Months) and all other follow-up visits including the last visit. For change from baseline to 1 year preparative ultracentrifugation measurements for LDL-C were analyzed, unless this value was missing. If the LDL-C preparative ultracentrifugation values were missing, then another LDL-C value was used, with prioritization of values obtained from LDL-C Direct measurements, followed by LDL-C derived by the Friedewald calculation (only for subjects with TG<400 mg/dL), and finally LDL-C derived using the calculation published by Hopkins University investigators (Martin S S, Blaha M J, Elshazly M B, et al. Comparison of a novel method vs the Friedewald equation for estimating low-density lipoprotein cholesterol levels from the standard lipid profile. JAMA. 2013; 310:2061-8). In addition, change from baseline to day 120 in LDL-C utilizing Friedewald's and Hopkins methods was analyzed, using the arithmetic mean of LDL-C obtained at Visit 2 (Day 0) and the preceding Visit 1 (or Visit 1.1). If one of these values was missing, the single available LDL-C value was used. LDL-C according to Hopkins was calculated at each visit.
The randomization visit was considered Baseline. If a baseline value was not available from the randomization visit, then the latest screening value was used. For measurements of lipids, lipoproteins and inflammatory markers, the change and the percent change were summarized at each visit. Since these biomarkers are typically not normally distributed, the Wilcoxon rank-sum test was used for treatment comparisons of the percent change from baseline, and medians and quartiles were provided for each treatment group. The medians of the differences between the treatment groups and 95% CIs were estimated with the Hodges-Lehmann method. In addition, shift-tables were generated as appropriate.

Which results are given for `CC/C=C\C/C=C\C/C=C\C/C=C\C/C=C\CCCC(=O)OCC` [AMR101, icosapent ethyl]?
Key secondary composite endpoint absolute between-group difference in the rate of the endpoint ([1]; 2 g twice daily vs placebo): 3.6 percentage points; Primary composite endpoint absolute between-group difference in the rate of the endpoint ([1]; 2 g twice daily vs placebo): 4.8 percentage points; Cardiovascular death, % of patients ([1]; 4 g daily, ITT): 4.3%; Total mortality, % of patients ([1]; 4 g daily, ITT): 6.7%; Amputation for PVD (%) ([1]; ITT): (0.5%); Cardiac Arrest (%) ([1]; ITT): (0.5%); Cardiac Arrhythmias Requiring Hospitalization of ≥24 Hours (%) ([1]; ITT): (4.6%); Carotid Revascularization (%) ([1]; ITT): (0.8%); Coronary Revascularization (%) ([1]; ITT): (9.2%); Elective Revascularization (%) ([1]; ITT): (4.7%); Emergent Revascularization (%) ([1]; ITT): (1.0%); Hemorrhagic Stroke (%) ([1]; ITT): 0.3%; Ischemic Stroke (%) ([1]; ITT): (2.0%); New Heart Failure (%) ([1]; ITT): 4.1%; New Heart Failure Requiring Hospitalization (%) ([1]; ITT): (3.4%); Salvage Revascularization (%) ([1]; ITT): (0.0%); Sudden Cardiac Death (%) ([1]; ITT): (1.5%); Transient Ischemic Attack (%) ([1]; ITT): (1.6%); Urgent Revascularization (%) ([1]; ITT): (4.4%); Hemorrhagic Stroke (%) ([1]; ITT, listed as Icosapent Ethyl): (0.3%); New Heart Failure (%) ([1]; ITT, listed as Icosapent Ethyl): (4.1%); Atrial fibrillation or flutter requiring hospitalization (adjudicated tertiary endpoint), % of patients ([1]; human, in vivo): 3.1%; New Onset of Diabetes (%) ([1]; patients with diabetes at baseline excluded): (3.8%); Composite of cardiovascular death or nonfatal myocardial infarction RRR ([1]; vs placebo, 4 g per day): 25%; Composite of total mortality, nonfatal myocardial infarction, or nonfatal stroke reduction (RRR) ([1]; vs placebo, 4 g per day): 23%; Key secondary composite endpoint relative risk reduction (RRR) ([1]; vs placebo, 4 g per day): 26%; Primary composite endpoint relative risk reduction (RRR) ([1]; vs placebo, 4 g per day): 25%; Reduction in heart attack ([1]; vs placebo, 4 g per day): 31%; Total mortality reduction (RRR) ([1]; vs placebo, 4 g per day): 13%; Total mortality HR ([1]; vs placebo, ITT): 0.87; Primary composite endpoint number needed to treat (NNT) ([1]; vs placebo, median follow up 4.9 years): 21; Pneumonia (serious adverse event), rate ([2]; Safety population): 2.6%; Rate of anemia (adverse event) ([2]; Safety population): 4.7%; Rate of atrial fibrillation (adverse event) ([2]; Safety population): 5.3%; Rate of diarrhea (adverse event) ([2]; Safety population): 9%; Rate of gastrointestinal adverse events ([2]; Safety population): 33.0%; Rate of peripheral edema (adverse event) ([2]; Safety population): 6.5%; Serious TEAE Leading to Death, % ([2]; […]): (2.3%); Serious TEAE, % ([2]; […]): (30.6%); Subjects with at Least One TEAE, % ([2]; […]): (81.8%); Serious gastrointestinal bleeding, rate [3]: 1.5%; HDL-C Median Year 1 ([4]; Year 1, Table 18): 39.0 mg/dL; LDL-C Median Year 1 ([4]; Year 1, Table 18): 77.0 mg/dL; Non-HDL-C Median Year 1 ([4]; Year 1, Table 18): 113.0 mg/dL; Triglycerides Median Year 1 ([4]; Year 1, Table 18): 175.0 mg/dL; Triglycerides: median reduction from baseline greater than in the placebo group (Hodges-Lehmann) ([4]; baseline to one year, vs placebo): 19.7%; HDL-C Median Between Group Difference at Year 1, % Change from Baseline ([4]; vs placebo, Table 18): −6.3%; HDL-C Median Between Group Difference at Year 1, Absolute Change from Baseline ([4]; vs placebo, Table 18): -2.5 mg/dL; LDL-C Median Between Group Difference at Year 1, % Change from Baseline ([4]; vs placebo, Table 18): −6.6%; LDL-C Median Between Group Difference at Year 1, Absolute Change from Baseline ([4]; vs placebo, Table 18): -5.0 mg/dL; Non-HDL-C Median Between Group Difference at Year 1, Absolute Change from Baseline ([4]; vs placebo, Table 18): -15.5 mg/dL; Triglycerides Median Between Group Difference at Year 1, % Change from Baseline ([4]; vs placebo, Table 18): −19.7%; Triglycerides Median Between Group Difference at Year 1, Absolute Change from Baseline ([4]; vs placebo, Table 18): -44.5 mg/dL
